Structures are written as SMILES. pIC50: −log10 of the molar value.

The experiment addresses T1, Renin (Homo sapiens, UniProt P00797).
T1 sequence (P00797 whole entry): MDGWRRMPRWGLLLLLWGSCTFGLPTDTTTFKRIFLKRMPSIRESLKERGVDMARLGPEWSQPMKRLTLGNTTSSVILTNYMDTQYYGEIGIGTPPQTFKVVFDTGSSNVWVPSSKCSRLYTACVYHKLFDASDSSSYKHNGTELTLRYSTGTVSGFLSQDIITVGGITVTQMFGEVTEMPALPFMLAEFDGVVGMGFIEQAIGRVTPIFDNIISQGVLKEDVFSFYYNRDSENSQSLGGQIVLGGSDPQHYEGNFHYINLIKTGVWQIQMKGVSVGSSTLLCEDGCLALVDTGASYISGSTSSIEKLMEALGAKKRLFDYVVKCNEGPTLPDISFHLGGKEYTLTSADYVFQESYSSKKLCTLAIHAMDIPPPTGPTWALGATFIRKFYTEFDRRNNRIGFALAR
The experiment in a line: Binding affinity towards human renin was determined.
Broadly, the pIC50 is the negative decadic logarithm of the IC50, by convention in mol/L. Higher therefore signals a low IC50. As to `CCCCNC(=O)[C@H](C)C[C@H](O)[C@@H]1C[C@@H](C)[C@@H](c2ccccc2)N1C(=O)OCc1ccccc1`, the negative logarithm of the IC50 (pIC50) is under 4.00.

Molecule `CCCCNC(=O)[C@H](C)C[C@H](O)[C@H](C[C@@H](C)Cc1ccccc1)NC(=O)OC(C)(C)C` showed a pIC50 of under 4.00.

`CCCCNC(=O)[C@H](C)C[C@H](O)[C@@H](N)C[C@@H](C)Cc1ccccc1` gave a negative logarithm of the IC50 (pIC50) of 4.43.

`CCCCNC(=O)[C@H](C)C[C@H](O)C1C[C@@H](C)[C@@H](c2ccccc2)N1C(=O)OC(C)(C)C` (some centres undefined): the pIC50 was under 4.00.

For the origin of these results see ChEMBL document CHEMBL1127931, “Design and synthesis of a prototypical non-peptidic inhibitor model for the enzme renin” (Bioorg Med Chem Lett, 1994).
